One data set concerns the target T1, hMAO-A (Homo sapiens, UniProt P21397).
T1 sequence (P21397 1-527): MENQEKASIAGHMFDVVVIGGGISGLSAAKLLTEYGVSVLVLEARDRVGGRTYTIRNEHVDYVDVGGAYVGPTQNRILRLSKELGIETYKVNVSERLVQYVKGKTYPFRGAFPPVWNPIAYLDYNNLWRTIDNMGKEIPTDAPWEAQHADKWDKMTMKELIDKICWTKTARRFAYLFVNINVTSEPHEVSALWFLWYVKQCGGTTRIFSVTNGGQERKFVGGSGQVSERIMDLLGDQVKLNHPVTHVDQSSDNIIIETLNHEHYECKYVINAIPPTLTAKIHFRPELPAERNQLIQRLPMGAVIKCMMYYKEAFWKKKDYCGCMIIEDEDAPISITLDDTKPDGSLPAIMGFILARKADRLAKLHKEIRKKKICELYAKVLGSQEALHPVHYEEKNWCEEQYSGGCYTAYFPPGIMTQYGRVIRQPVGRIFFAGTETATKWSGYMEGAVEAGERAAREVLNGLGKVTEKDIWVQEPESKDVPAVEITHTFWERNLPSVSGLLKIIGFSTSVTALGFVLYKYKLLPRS
The data set can be described thus: in vitro fluorometric hMAO-A inhibition assay (Amplex Red). The following applies: read-out: MAO A Inhibition %; for inhibition at 1000 µM: 10^−3 M; for inhibition at 100 µM: 10^−4 M. The data set is classed as biochemical. Here is the method:
The in vitro fluorometric enzymatic assay, allowing to sensitively detect monoamine oxidase activity, was applied to investigate hMAO-A and hMAO-B inhibitory potential of compounds 3a–3j. The method was performed in two steps, as previously described. […]
An enzyme inhibition assay was performed according to our recent study. The inhibitor (20 μL/well) and hMAO-A (100 μL/well) or hMAO-B solution (100 μL/well) was added to the fine black-bottom 96-well microtiter plate and the mixture was incubated at 37 °C for 30 min. After the incubation period, the reaction was started by adding a working solution (100 μL/well) ([…] Amplex Red reagent, 1 U/mL horseradish peroxidase and 1 mM p-tyramine) and all pipetting processes were performed using a Biotek Precision XS robotic system (BioTek Instruments, Winooski, VT, USA).
The production of H2O2 and, subsequently, of resorufin was quantified at 37 °C in a BioTek-Synergy H1 microplate reader based on the fluorescence generated (excitation, 535 nm, emission, 587 nm) over a 15 min period, in which the fluorescence increased linearly. Control experiments were carried out simultaneously by replacing the inhibitor solution with 2% DMSO (20 μL). In order to check the probable inhibitory effect of inhibitors on horseradish peroxidase, a parallel reading was achieved by replacing enzyme solutions with 3% H2O2 solution (20 mM 100 μL/well). In addition, the probable capacity of the inhibitors to modify the fluorescence generated in the reaction mixture due to non-enzymatic inhibition was determined by mixing inhibitor and working solutions.
(§1) The specific fluorescence emission (used to obtain the final results) was calculated after subtraction of the background activity, which was determined from vials containing all components except the hMAO isoforms, which were replaced by phosphate buffer (100 μL/well). Blank, control and all concentrations of inhibitors were analyzed in quadruplicate and inhibition percent was calculated by using following equation: % Inhibition=(FCt2−FCt1)−(FIt2−FIt1)/FCt2−FCt1×100 where FCt2 is the fluorescence of a control well measured at t2 time; FCt1 is the fluorescence of a control well measured at t1 time; FIt2 is the fluorescence of an inhibitor well measured at t2 time; and FIt1 is the fluorescence of an inhibitor well measured at t1 time.
(§2) The IC50 values were calculated from a dose-response curve obtained by plotting the percentage inhibition versus the log concentration with the use of GraphPad PRISM software (version 5.0, GraphPad Software Inc., La Jolla, CA, USA).

The target of a further data set is T2, hMAO-B (Homo sapiens, UniProt P27338).
T2 sequence (P27338 1-520): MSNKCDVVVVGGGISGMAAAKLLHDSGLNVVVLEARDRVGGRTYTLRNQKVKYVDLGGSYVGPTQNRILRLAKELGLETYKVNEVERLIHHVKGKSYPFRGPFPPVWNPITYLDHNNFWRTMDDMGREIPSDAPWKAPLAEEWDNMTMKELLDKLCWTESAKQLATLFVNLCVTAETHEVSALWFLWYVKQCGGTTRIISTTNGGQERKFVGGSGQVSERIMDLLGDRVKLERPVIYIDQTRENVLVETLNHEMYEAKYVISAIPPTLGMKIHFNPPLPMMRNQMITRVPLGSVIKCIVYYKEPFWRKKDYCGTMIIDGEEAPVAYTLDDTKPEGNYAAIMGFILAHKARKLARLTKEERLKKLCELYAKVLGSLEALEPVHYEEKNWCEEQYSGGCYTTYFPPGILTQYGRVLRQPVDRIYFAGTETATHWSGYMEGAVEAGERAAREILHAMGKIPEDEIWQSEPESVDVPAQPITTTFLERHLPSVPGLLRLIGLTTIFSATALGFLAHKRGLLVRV
Nature of the data set: in vitro fluorometric hMAO-B inhibition assay (Amplex Red). In kind it is biochemical. The following applies: for inhibition at 1000 µM: 10^−3 M; for inhibition at 1000 µM / inhibition at 100 µM: read-out: MAO B Inhibition %; for inhibition at 100 µM: 10^−4 M; for inhibition against hMAO-B (first screening step): 10^−3 and 10^−4 M; for IC50: concentrations of 10^−5–10^−9 M, mean ± SD, read-out: MAO B IC50. Here is the method: The method was performed in two steps, as previously described.
An enzyme inhibition assay was performed according to our recent study. […] After the incubation period, the reaction was started by adding a working solution (100 μL/well) ([…] Amplex Red reagent, 1 U/mL horseradish peroxidase and 1 mM p-tyramine) and all pipetting processes were performed using a Biotek Precision XS robotic system (BioTek Instruments, Winooski, VT, USA).
Control experiments were carried out simultaneously by replacing the inhibitor solution with 2% DMSO (20 μL). In order to check the probable inhibitory effect of inhibitors on horseradish peroxidase, a parallel reading was achieved by replacing enzyme solutions with 3% H2O2 solution (20 mM 100 μL/well). In addition, the probable capacity of the inhibitors to modify the fluorescence generated in the reaction mixture due to non-enzymatic inhibition was determined by mixing inhibitor and working solutions.
as §1, §2

In general, inhibition refers to the drop in the measured response relative to a control, in per cent. What is called melting point is the temperature, or range, at which the solid turns liquid. `COc1ccc2sc(SCC(=O)NN=Cc3ccc(C)s3)nc2c1` [Compound 3c, 2-((5-Methoxybenzothiazol-2-yl)thio)-N′-((5-methylthiophen-2-yl)methylene)acetohydrazide] yielded a melting point of 149.6 to 152.3 °C. In addition, at hMAO-A, the inhibition at 1000 µM was determined as 14.1% and the inhibition at 100 µM was found to be 10.8%. In addition, on hMAO-B, the inhibition at 1000 µM stood at 25.8% and the inhibition at 100 µM came out at 18.2%.

The IC50 is the concentration needed to halve the response being measured. Molecule `COc1ccc2sc(SCC(=O)NN=Cc3ccco3)nc2c1` [Compound 3f, N′-(Furan-2-ylmethylene)-2-((5-methoxybenzothiazol-2-yl)thio)acetohydrazide] came in with a melting point of 146.1 to 147.9 °C. At hMAO-A, the inhibition at 1000 µM worked out at 30.8% and the inhibition at 100 µM was found to be 18.3%. Moreover, at hMAO-B, the inhibition at 1000 µM amounted to 75.7%, the “inhibition against hMAO-B (first screening step)” value (shortened to “inhibition against hMAO-B”) was “more than 50%”, the inhibition at 100 µM stood at 68.3% and the IC50 was 963 ± 33 nM.

With `O=C(NCCN1CCOCC1)c1ccc(Cl)cc1` [Moclobemide, reference compound], at hMAO-A, the inhibition at 1000 µM amounted to 91.4 ± 4.6% and the inhibition at 100 µM is 77.9 ± 3.71%.

With `COc1ccc2sc(SCC(=O)NN=Cc3ccc([N+](=O)[O-])o3)nc2c1` [Compound 3h, 2-((5-Methoxybenzothiazol-2-yl)thio)-N′-((5-nitrofuran-2-yl)methylene)acetohydrazide], the melting point lay within 168.9 to 170.7 °C. Further, on hMAO-A, the inhibition at 1000 µM stood at 25.9% and the inhibition at 100 µM stood at 21.3%. In addition, at hMAO-B, the inhibition at 1000 µM turned out to be 82.6%, the “inhibition against hMAO-B” value is on record as “more than 50%”, the inhibition at 100 µM is 79.1% and the 50% inhibitory concentration (IC50) worked out at 75 ± 3 nM.

With `COc1ccc2sc(SCC(=O)NN=Cc3ccncc3)nc2c1` [Compound 3j, 2-((5-Methoxybenzothiazol-2-yl)thio)-N′-(pyridin-4-ylmethylene)acetohydrazide], the melting point was in the range of 159.8 to 161.4 °C. Besides, at hMAO-A, the inhibition at 1000 µM amounted to 22.1% and the inhibition at 100 µM was 17.3%. For the same molecule, on hMAO-B, the inhibition at 1000 µM came out at 34.6% and the inhibition at 100 µM amounted to 30.5%.

Consider `COc1ccc2sc(SCC(=O)NN=Cc3cccs3)nc2c1` [Compound 3a, 2-((5-Methoxybenzothiazol-2-yl)thio)-N′-(thiophen-2-ylmethylene)acetohydrazide], for which the melting point lay within 163.7 to 165.3 °C. Also, at hMAO-A, the inhibition at 1000 µM is 25% and the inhibition at 100 µM is 19%. On hMAO-B, the inhibition at 1000 µM amounted to 60.4%, the “inhibition against hMAO-B” value is listed as “more than 50%”, the inhibition at 100 µM is 52.1% and the IC50 is 15400 ± 398 nM.

Molecule `COc1ccc2sc(SCC(=O)NN=Cc3cccnc3)nc2c1` [Compound 3i, 2-((5-Methoxybenzothiazol-2-yl)thio)-N′-(pyridin-3-ylmethylene)acetohydrazide] returned a melting point of 177.5 to 179.3 °C. At hMAO-A, the inhibition at 1000 µM stood at 19.9% and the inhibition at 100 µM was 10.6%. In addition, at hMAO-B, the inhibition at 1000 µM is 32% and the inhibition at 100 µM is 28.8%.

Consider `COc1ccc2sc(SCC(=O)NN=Cc3ccc(Br)s3)nc2c1` [Compound 3d, N′-((5-Bromothiophen-2-yl)methylene)-2-((5-methoxybenzothiazol-2-yl)thio)acetohydrazide], for which the melting point was 188.3 to 190.4 °C. In addition, on hMAO-A, the inhibition at 1000 µM turned out to be 18.9% and the inhibition at 100 µM was 12.7%. Also, on hMAO-B, the inhibition at 1000 µM worked out at 24% and the inhibition at 100 µM was found to be 17.8%.

`COc1ccc2sc(SCC(=O)NN=Cc3ccc(C)o3)nc2c1` [Compound 3g, 2-((5-Methoxybenzothiazol-2-yl)thio)-N′-((5-methylfuran-2-yl)methylene)acetohydrazide]: the melting point is 145.3 to 146.7 °C. In addition, at hMAO-A, the inhibition at 1000 µM is 16.7% and the inhibition at 100 µM was 11.1%. Moreover, on hMAO-B, the inhibition at 1000 µM came out at 18.2% and the inhibition at 100 µM worked out at 11.2%.

For the molecule `COc1ccc2sc(SCC(=O)NN=Cc3sccc3C)nc2c1` [Compound 3b, 2-((5-Methoxybenzo[d]thiazol-2-yl)thio)-N′-((3-methylthiophen-2-yl)methylene)acetohydrazide], the melting point fell in the range of 162.9 to 164.4 °C. Moreover, at hMAO-A, the inhibition at 1000 µM was determined as 30.1% and the inhibition at 100 µM was 20.4%. Moreover, at hMAO-B, the inhibition at 1000 µM was 30.5% and the inhibition at 100 µM is 26.9%.

The values above are taken from article PMC6149824, “Design and Synthesis of New Benzothiazole Compounds as Selective hMAO-B Inhibitors” (Molecules : A Journal of Synthetic Chemistry and Natural …, 2017).
